According to ChEMBL document CHEMBL3885881, “DrugMatrix”:

Species on record: Rattus norvegicus
Test: DrugMatrix - Regimen: Daily Repeat
Type: toxicity, organism-based, Sprague-Dawley
Set-up: regimen Daily Repeat, gender Male, age 6-8 weeks
Conditions: in vivo, po, route oral GAVAGE, vehicle 100 % WATER; for ABSOLUTE BASOPHIL / ABSOLUTE EOSINOPHIL / ABSOLUTE LYMPHOCYTE / ABSOLUTE MONOCYTE / ABSOLUTE SEGMENTED NEUTROPHIL / BASOPHIL / EOSINOPHIL / ERYTHROCYTE COUNT / HEMATOCRIT / HEMOGLOBIN / LEUKOCYTE COUNT / LYMPHOCYTE / MEAN CORPUSCULAR HEMOGLOBIN / MEAN CORPUSCULAR HEMOGLOBIN CONCENTRATION / MEAN CORPUSCULAR VOLUME / MONOCYTE / NEUTROPHIL / NUCLEATED RED BLOOD CELLS / PLATELET COUNT: tissue Blood; for ALANINE AMINOTRANSFERASE / ALBUMIN / ALKALINE PHOSPHATASE / ASPARTATE AMINOTRANSFERASE / BLOOD UREA NITROGEN / CARBON DIOXIDE / CHLORIDE / CHOLESTEROL / CREATINE PHOSPHOKINASE / CREATININE / GLUCOSE / LACTATE DEHYDROGENASE / LIPASE / PHOSPHORUS / POTASSIUM / SODIUM / TOTAL BILIRUBIN / TOTAL PROTEIN / URIC ACID: tissue Plasma
[1] = 0 mg/kg, 72 h, dose level Control, time 3 day
[2] = 0 mg/kg, 120 h, dose level Control, time 5 day
[3] = 1 mg/kg, 72 h, dose level Low, time 3 day

For `CN1C2CCCC1CC(NC(=O)c1nn(C)c3ccccc13)C2` (centres undefined) [GRANISETRON], the “ABSOLUTE BASOPHIL” value [1] was 0 CELLS/uL, the “ABSOLUTE EOSINOPHIL” value [1] was 0 CELLS/uL and the “ABSOLUTE LYMPHOCYTE” value [1] was 8482.5 CELLS/uL. The “ABSOLUTE MONOCYTE” value [1] was 63.83 CELLS/uL, the “ABSOLUTE SEGMENTED NEUTROPHIL” value [1] was 887 CELLS/uL and the BASOPHIL [1] was 0%. For the same compound, the EOSINOPHIL [1] was 0%, the “ERYTHROCYTE COUNT” value [1] was 5.49 x10E6/uL and the HEMATOCRIT [1] was 34.5%. For the same compound, the HEMOGLOBIN [1] was 13.33 G/DL, the “LEUKOCYTE COUNT” value [1] was 9.43 x10E3/uL and the LYMPHOCYTE [1] was 90.17%. For the same compound, the “MEAN CORPUSCULAR HEMOGLOBIN” value [1] was 24.3 pg, the “MEAN CORPUSCULAR HEMOGLOBIN CONCENTRATION” value [1] was 38.63 G/DL and the “MEAN CORPUSCULAR VOLUME” value [1] was 62.88 fL. For the same compound, the MONOCYTE [1] was 0.67%, the NEUTROPHIL [1] was 9.17% and the “NUCLEATED RED BLOOD CELLS” value [1] was 0.67 /100WBC. The “PLATELET COUNT” value [1] was 1022.83 x10E3/uL, the “ALANINE AMINOTRANSFERASE” value [1] was 50.5 u/L and the ALBUMIN [1] was 4.08 G/DL. The “ALKALINE PHOSPHATASE” value [1] was 368.33 u/L, the “ASPARTATE AMINOTRANSFERASE” value [1] was 87.5 u/L and the “BLOOD UREA NITROGEN” value [1] was 12.83 mg/dL. For the same compound, the “CARBON DIOXIDE” value [1] was 32.83 mmol/L, the CHLORIDE [1] was 99.67 MEQ/L and the CHOLESTEROL [1] was 79.67 mg/dL. The “CREATINE PHOSPHOKINASE” value [1] was 585 u/L, the CREATININE [1] was 0.22 mg/dL and the GLUCOSE [1] was 135.67 mg/dL. The “LACTATE DEHYDROGENASE” value [1] was 171 u/L, the LIPASE [1] was 9.5 u/L and the PHOSPHORUS [1] was 11.18 mg/dL. The POTASSIUM [1] was 6.25 MEQ/L, the SODIUM [1] was 144.87 MEQ/L and the “TOTAL BILIRUBIN” value [1] was 0.2 mg/dL. For the same compound, the “TOTAL PROTEIN” value [1] was 6.08 G/DL, the “URIC ACID” value [1] was 0.65 mg/dL and the “ABSOLUTE BASOPHIL” value [2] was 0 CELLS/uL. The “ABSOLUTE EOSINOPHIL” value [2] was 14.5 CELLS/uL, the “ABSOLUTE LYMPHOCYTE” value [2] was 7596.17 CELLS/uL and the “ABSOLUTE MONOCYTE” value [2] was 69.67 CELLS/uL. For the same compound, the “ABSOLUTE SEGMENTED NEUTROPHIL” value [2] was 503 CELLS/uL, the BASOPHIL [2] was 0% and the EOSINOPHIL [2] was 0.17%. For the same compound, the “ERYTHROCYTE COUNT” value [2] was 5.49 x10E6/uL, the HEMATOCRIT [2] was 34.72% and the HEMOGLOBIN [2] was 13.47 G/DL. The “LEUKOCYTE COUNT” value [2] was 8.18 x10E3/uL, the LYMPHOCYTE [2] was 92.17% and the “MEAN CORPUSCULAR HEMOGLOBIN” value [2] was 24.57 pg. The “MEAN CORPUSCULAR HEMOGLOBIN CONCENTRATION” value [2] was 38.82 G/DL, the “MEAN CORPUSCULAR VOLUME” value [2] was 63.3 fL and the MONOCYTE [2] was 1%. The NEUTROPHIL [2] was 6.67%, the “NUCLEATED RED BLOOD CELLS” value [2] was 0 /100WBC and the “PLATELET COUNT” value [2] was 1141 x10E3/uL. For the same compound, the “ALANINE AMINOTRANSFERASE” value [2] was 48.33 u/L, the ALBUMIN [2] was 4.07 G/DL and the “ALKALINE PHOSPHATASE” value [2] was 395.67 u/L. The “ASPARTATE AMINOTRANSFERASE” value [2] was 85.67 u/L, the “BLOOD UREA NITROGEN” value [2] was 15.83 mg/dL and the “CARBON DIOXIDE” value [2] was 31.33 mmol/L. The CHLORIDE [2] was 100.83 MEQ/L, the CHOLESTEROL [2] was 62.33 mg/dL and the “CREATINE PHOSPHOKINASE” value [2] was 248.33 u/L. For the same compound, the CREATININE [2] was 0.2 mg/dL, the GLUCOSE [2] was 135.67 mg/dL and the “LACTATE DEHYDROGENASE” value [2] was 141.33 u/L. It also gave an LIPASE [2] of 9.5 u/L, a PHOSPHORUS [2] of 10.73 mg/dL and a POTASSIUM [2] of 6.07 MEQ/L. The SODIUM [2] was 145.35 MEQ/L, the “TOTAL BILIRUBIN” value [2] was 0.22 mg/dL and the “TOTAL PROTEIN” value [2] was 6.12 G/DL. The “URIC ACID” value [2] was 0.63 mg/dL, the “ABSOLUTE BASOPHIL” value [3] was 0 CELLS/uL and the “ABSOLUTE EOSINOPHIL” value [3] was 35.67 CELLS/uL. The “ABSOLUTE LYMPHOCYTE” value [3] was 7674 CELLS/uL, the “ABSOLUTE MONOCYTE” value [3] was 0 CELLS/uL and the “ABSOLUTE SEGMENTED NEUTROPHIL” value [3] was 690.33 CELLS/uL. The BASOPHIL [3] was 0%, the EOSINOPHIL [3] was 0.33% and the “ERYTHROCYTE COUNT” value [3] was 5.55 x10E6/uL. For the same compound, the HEMATOCRIT [3] was 33.93%, the HEMOGLOBIN [3] was 12.9 G/DL and the “LEUKOCYTE COUNT” value [3] was 8.4 x10E3/uL. The LYMPHOCYTE [3] was 92%, the “MEAN CORPUSCULAR HEMOGLOBIN” value [3] was 23.3 pg and the “MEAN CORPUSCULAR HEMOGLOBIN CONCENTRATION” value [3] was 38.03 G/DL. For the same compound, the “MEAN CORPUSCULAR VOLUME” value [3] was 61.3 fL, the MONOCYTE [3] was 0% and the NEUTROPHIL [3] was 7.67%. For the same compound, the “NUCLEATED RED BLOOD CELLS” value [3] was 0.33 /100WBC, the “PLATELET COUNT” value [3] was 1023.67 x10E3/uL and the “ALANINE AMINOTRANSFERASE” value [3] was 49 u/L. The ALBUMIN [3] was 4 G/DL, the “ALKALINE PHOSPHATASE” value [3] was 371 u/L and the “ASPARTATE AMINOTRANSFERASE” value [3] was 82.67 u/L. For the same compound, the “BLOOD UREA NITROGEN” value [3] was 11.67 mg/dL, the “CARBON DIOXIDE” value [3] was 34 mmol/L and the CHLORIDE [3] was 99.33 MEQ/L. The CHOLESTEROL [3] was 76.33 mg/dL, the “CREATINE PHOSPHOKINASE” value [3] was 380.33 u/L and the CREATININE [3] was 0.29 mg/dL. The GLUCOSE [3] was 141.67 mg/dL, the “LACTATE DEHYDROGENASE” value [3] was 138.33 u/L and the LIPASE [3] was 12 u/L. It also gave a PHOSPHORUS [3] of 10.8 mg/dL, a POTASSIUM [3] of 5.77 MEQ/L and an SODIUM [3] of 145.17 MEQ/L. For the same compound, the “TOTAL BILIRUBIN” value [3] was 0.1 mg/dL, the “TOTAL PROTEIN” value [3] was 5.83 G/DL and the “URIC ACID” value [3] was 0.57 mg/dL.
